From patent US20190135818A1 (SHANGHAI INSTITUTE OF MATERIA MEDICA, CHINESE ACADEMY OF …, priority 2016, published 2019)

Assays:
FGFR1 = molecular target: T1, FGFR1 (Homo sapiens, UniProt P11362); assay: FGFR kinase inhibitory activity experiment (ELISA, Poly(Glu,Tyr)4:1 substrate); assay type: biochemical; settings: kinase recombinant protein FGFR1, ATP 5 μM
T1 construct: The reaction was initiated by addition of FGFR kinase domain recombinant protein diluted with 49 μL of reaction buffer; purchased Millipore 14-482
T1 sequence (P11362 478-767 limits assumed): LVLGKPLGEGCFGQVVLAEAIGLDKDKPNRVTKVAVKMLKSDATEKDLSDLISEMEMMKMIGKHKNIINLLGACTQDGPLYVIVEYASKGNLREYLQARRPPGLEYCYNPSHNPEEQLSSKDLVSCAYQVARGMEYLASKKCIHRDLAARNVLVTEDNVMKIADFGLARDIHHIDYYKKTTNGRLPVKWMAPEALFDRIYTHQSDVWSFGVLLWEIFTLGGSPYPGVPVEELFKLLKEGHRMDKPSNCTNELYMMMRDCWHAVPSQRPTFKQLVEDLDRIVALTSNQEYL
Procedure: Precision electronic balance (Sartotius, Cat. No. BP210D), adjustable wavelength microplate reader (Molecular Device, Cat. No. SpectraMax 190).
After the liquid was removed from the wells, the plate was washed for three times with 200 μL/well of T-PBS (PBS containing 0.1% Tween-20) for 5 minutes each time. The enzyme plate was dried at 37° C. in a dryer for 1-2 hours.
50 μL ATP solution diluted with reaction buffer (50 mM HEPES pH 7.4, 50 mM MgCl2, 0.5 mM MnCl2, 0.2 mM Na3VO4, 1 mM DTT) was added into each well at a 5 μM final concentration. The compounds were diluted to appropriate concentration in DMSO, 1 μL/well or containing the corresponding concentrations of DMSO (negative control wells). The reaction was initiated by addition of FGFR kinase domain recombinant protein diluted with 49 μL of reaction buffer. Two control wells without enzyme were set in each experiment. The plate was placed on a shaker (100 rpm) at 37° C. for 1 hour. The plate was washed with T-PBS for three times. 100 μL/well of primary antibody PY99 dilution was added, and incubated at 37° C. for 0.5 hour on a shaker (100 rpm). The plate was washed with T-PBS for three times. 100 μL/well of horseradish peroxidase-labeled secondary anti-goat anti-mouse IgG dilution was added and incubated at 37° C. for 0.5 hour on a shaker (100 rpm). The plate was washed with T-PBS for three times. 100 μL/well of 2 mg/mL OPD coloration solution (diluted with 0.1 M citric acid-sodium citrate buffer containing 0.03% H2O2 (pH=5.4)) was added, and incubated in darkness for 1-10 minutes at 25° C. The reaction was quenched with 50 μL/well 2M H2SO4, and read at 490 nm using a tunable microplate microplate reader SPECTRA MAX 190.
The inhibition ratio of the sample was determined by the following formula: […]
(§1) The IC50 values were obtained by four-parameter regression analysis using the software supplied with the microplate reader.

[1] = system: Human acute myeloid leukemia cell line KG1; assay: FGFR-dependent tumor cell proliferation inhibition activity test (CCK-8, 72 h); assay type: cell-based; settings: Homo sapiens, KG-1, KG1 cells
Description: Human acute myeloid leukemia cell line KG1 (FGFR1 fusion protein expressed in the cytoplasm, FGFR1-dependent tumor cell line) (ATCC, Cat. No. CCL-246), cell culture medium RPMI-1640 (Corning Cellgro, No. 10-040-CVR), fetal bovine serum (Life
Technologies, Cat. No. 10099-141) was purchased from the company; CCK-8 cell counting kit (DOJINDO, Cat. No. FK808). Adjustable wavelength microplate reader (Molecular Device, Cat. No. SpectraMax 190).
The inhibitory effect of the compound on KG1 proliferation was detected by CCK-8 Cell Counting Kit (Dojindo): Logarithmic growth phase cells were seeded in 96-well culture plate in appropriate density, 90 ul for each well. After cultured overnight, different concentrations of drugs were added and incubated for 72 h, while solvent control well was set (negative control). After the cells were treated by the compound for 72 h, 10 μL of CCK-8 reagent was added to each well. After incubated for 2-4 hours in a 37 □ incubator, the plate was read with SpectraMax 190 microplate reader at wavelength 450 nm.
The inhibition rate of compounds against cell proliferation is calculated by the following formula:
Inhibition rate (%)=(OD negative control well-OD administration well)/OD negative control well×100%.
as §1

IC50 (FGFR1) | IC50 [1] | Structure (SMILES)
< 100 nM | 100 to 1000 nM | CCC(=O)N1CCC(n2nc3c(=O)[nH]nc(N)c3c2-c2oc3ccc(Cl)cc3c2C)CC1 [Compound A41]
< 100 nM | ≤ 100 nM | C=CC(=O)N1CCC(n2nc3c(=O)[nH]nc(N)c3c2-c2oc3ccc(C)cc3c2C)C1 (centres unmarked) [Compound A51, 2-(1-acryloylpyrrolidin-3-yl)-4-amino-3-(3,5-dimethyl-1-benzofuran-2-yl)-2,6-dihydro-7H-pyrazolo[3,4-d]pyridazin-7-one]
< 100 nM | ≤ 100 nM | C=C(F)C(=O)N1CCC(n2nc3c(=O)[nH]nc(N)c3c2-c2oc3ccc(C)cc3c2C)C1 (centres unmarked) [Compound A52, 4-amino-3-(3,5-dimethyl-1-benzofuran-2-yl)-2-[1-(2-fluoroacryloyl)pyrrolidin-3-yl]-2,6-dihydro-7H-pyrazolo[3,4-d] pyridazin-7-one]
< 100 nM | ≤ 100 nM | C=C(C#N)C(=O)N1CCC(n2nc3c(=O)[nH]nc(N)c3c2-c2oc3ccc(C)cc3c2C)CC1 [Compound A55, 2-({4-[4-amino-3-(3,5-dimethyl-1-benzo-furan-2-yl)-7-carbonyl-6,7-dihydro-2H-pyrazolo[3,4-d]pyridazin-2-yl]piperidin-1-yl}carbonyl)prop-2-enenitrile]
< 100 nM | ≤ 100 nM | C=CC(=O)N1CCCC(n2nc3c(=O)[nH]nc(N)c3c2-c2oc3ccc(OC)cc3c2C)C1 (centres unmarked) [Compound A79, 2-(1-acryloylpiperidin-3-yl)-4-amino-3-(5-methoxy-3-methylbenzofuran-2-yl)-2,6-dihydro-7H-pyrazolo[3,4-d] pyridazin-7-one]
100 to 1000 nM | 100 to 1000 nM | C=CC(=O)N1CCC(n2nc3c(=O)[nH]nc(N)c3c2-c2oc3ccc(F)cc3c2C)CC1 [Compound A80, 2-(1-acryloylpiperidin-4-yl)-4-amino-3-(5-fluoro-3-methylbenzofuran-2-yl)-2,6-dihydro-7H-pyrazolo[3,4-d]pyridazin-7-one]
< 100 nM | ≤ 100 nM | C=CC(=O)N1CCC(n2nc3c(=O)[nH]nc(N)c3c2-c2oc3cc(C)ccc3c2C)CC1 [Compound A82, 2-(1-acryloylpiperidin-4-yl)-4-amino-3-(3,6-dimethylbenzofuran-2-yl)-2,6-dihy-dro-7H-pyrazole[3,4-d]pyridazin-7-one]
< 100 nM | ≤ 100 nM | C=CC(=O)N1CCC(n2nc3c(=O)[nH]nc(N)c3c2-c2oc3cc(F)ccc3c2C)CC1 [Compound A83, 2-(1-acryloylpiperidin-4-yl)-4-amino-3-(6-fluoro-3-methylbenzofuran-2-yl)-2,6-dihydro-7H-pyrazole[3,4-d]pyridazine-7-one]
< 100 nM | ≤ 100 nM | C=CC(=O)N1CCC(n2nc3c(=O)[nH]nc(N)c3c2-c2oc3cc(Cl)ccc3c2C)CC1 [Compound A84, 2-(1-acryloylpiperidin-4-yl)-4-amino-3-(6-chloro-3-methylbenzofuran-2-yl)-2,6-dihydro-7H-pyrazolo[3,4-d]pyridazine-7-one]
< 100 nM | ≤ 100 nM | C=CC(=O)N1CCC(n2nc3c(=O)[nH]nc(N)c3c2-c2oc3ccc(C)cc3c2CC)CC1 [Compound A85, 2-(1-acryloylpiperidin-4-yl)-4-amino-3-(3-ethyl-5-methylbenzofuran-2-yl)-2,6-dihydro-7H-pyrazolo[3,4-d]pyridazin-7-one]
< 100 nM | ≤ 100 nM | C=CC(=O)N1CCC(n2nc3c(=O)[nH]nc(N)c3c2-c2oc3ccc(Cl)cc3c2C)CC1 [Compound A86, 2-(1-acryloylpiperidin-4-yl)-4-amino-3-(5-chloro-3-methylbenzofuran-2-yl)-2,6-dihydro-7H-pyrazolo[3,4-d]pyridazin-7-one]

The next lines start with the compound.

Structure (SMILES) | IC50 (FGFR1) | IC50 [1]
CCC(=O)N1CCC(n2nc3c(=O)[nH]nc(N)c3c2-c2oc3ccc(C)cc3c2C)CC1 [Compound A10, 4-amino-3-(3,5-dimethyl-1-benzofuran-2-yl)-2-(1-propionylpiperidin-4-yl)-2,6-dihydro-7H-pyrazolo[3,4-d]pyridazin-7-one] | < 100 nM | 100 to 1000 nM
Cc1ccc2oc(-c3c4c(N)n[nH]c(=O)c4nn3-c3ccc(N(C)CCN(C)C)cc3)c(C)c2c1 [Compound A11, 4-amino-2-(4-{[2-(dimethylamino)ethyl] (methyl)amino}phenyl)-3-(3,5-dimethyl-1-benzofuran-2-yl)-2,6-dihydro-7H-pyrazolo[3,4-d]pyridazin-7-one] | < 100 nM | 100 to 1000 nM
Cc1ccc2oc(-c3c4c(N)n[nH]c(=O)c4nn3-c3ccc(Cl)cc3)c(C)c2c1 [Compound A13, 4-amino-2-(4-chlorophenyl)-3-(3,5-dimethyl-1-benzofuran-2-yl)-2,6-dihydro-7H-pyrazolo[3,4-d]pyridazin-7-one] | < 100 nM | 100 to 1000 nM
CCN1CCC(n2nc3c(=O)[nH]nc(N)c3c2-c2oc3ccc(Cl)cc3c2C)CC1 [Compound A23, 4-amino-3-(5-chloro-3-methyl-1-benzo-furan-2-yl)-2-(1-ethylpiperidin-4-yl)-2,6-dihydro-7H-pyrazolo[3,4-d]pyridazin-7-one] | < 100 nM | ≤ 100 nM
CCN1CCC(n2nc3c(=O)[nH]nc(N)c3c2-c2oc3ccc(C)cc3c2C)CC1 [Compound A24, 4-amino-3-(3,5-dimethyl-1-benzofuran-2-yl)-2-(1-ethylpiperidin-4-yl)-2,6-dihy-dro-7H-pyrazolo[3,4-d]pyridazin-7-one] | < 100 nM | ≤ 100 nM
Cc1ccc2oc(-c3c4c(N)n[nH]c(=O)c4nn3-c3ccc(NC(=O)/C=C/CN4CCC4)cc3)c(C)c2c1 [Compound A27, (2E)-N-{4-[4-amino-3-(3,5-dimethyl-1-benzofuran-2-yl)-7-carbonyl-6,7-dihydro-2H-pyrazolo[3,4-d]pyridazin-2-yl]phenyl}-4-(azetidin-1-yl)but-2-enamide] | < 100 nM | ≤ 100 nM
C=CC(=O)N1CCC(n2nc3c(=O)[nH]nc(N)c3c2-c2oc3ccc(C)cc3c2C)CC1 [Compound A29, 2-(1-acryloylpiperidin-4-yl)-4-amino-3-(3,5-dimethyl-1-benzofuran-2-yl)-2,6-dihydro-7H-pyrazolo[3,4-d]pyridazin-7-one] | < 100 nM | ≤ 100 nM
Cc1ccc2oc(-c3c4c(N)n[nH]c(=O)c4nn3C3CCN(C(=O)/C=C/CN(C)C)CC3)c(C)c2c1 [Compound A30, 4-amino-2-{1-[(2E)-4-(dimethylamino)but-2-enoyl]piperidin-4-yl}-3-(3,5-dimethyl-1-benzofuran-2-yl)-2,6-dihydro-7H-pyrazolo[3,4-d]pyridazin-7-one] | < 100 nM | ≤ 100 nM
C=CC(=O)NC1CCC(n2nc3c(=O)[nH]nc(N)c3c2-c2oc3ccc(C)cc3c2C)CC1 (centres unmarked) [Compound A33, N-{4-[4-amino-3-(3,5-dimethyl-1-benzo-furan-2-yl)-7-carbonyl-6,7-dihydro-2H-pyrazolo[3,4-d]pyridazin-2-yl]cyclohexyl}prop-2-enamide] | < 100 nM | ≤ 100 nM
Cc1ccc2oc(-c3c4c(N)n[nH]c(=O)c4nn3C3CCC(NC(=O)CN(C)C)CC3)c(C)c2c1 (centres unmarked) [Compound A35, N-{4-[4-amino-3-(3,5-dimethyl-1-benzo-furan-2-yl)-7-carbonyl-6,7-dihydro-2H-pyrazolo[3,4-d]pyridazin-2-yl]cyclohexyl}-N,N-dimethylglycinamide] | < 100 nM | 100 to 1000 nM
C=CC(=O)N1CCCC(n2nc3c(=O)[nH]nc(N)c3c2-c2oc3ccc(C)cc3c2C)C1 (centres unmarked) [Compound A40, 2-(1-acryloylpiperidin-3-yl)-4-amino-3-(3,5-dimethyl-1-benzofuran-2-yl)-2,6-dihy-dro-7H-pyrazolo[3,4-d]pyridazin-7-one] | < 100 nM | ≤ 100 nM
